Measured values taken from patent US8067410B2, “Phenolic and catecholic amines and prodrugs thereof” (H. Lundbeck A/S, priority 2008, dated 2011).
Where a name gives a salt, the structure may show the parent alone. Read-outs that look alike come from different tables or passages of the source.

Legend:
[1] = molecular target: human recombinant D1 receptor (Homo sapiens, UniProt P21728); assay: D1 cAMP assay; assay type: cell-based
Procedure: The ability of the compounds to either stimulate or inhibit the D1 receptor mediated cAMP formation in CHO cells stably expressing the human recombinant D1 receptor was measured as follows. Cells were seeded in 96-well plates at a concentration of 11000 cells/well 3 days prior to the experiment. On the day of the experiment the cells were washed once in preheated G buffer (1 mM MgCl2, 0.9 mM CaCl2, 1 mM IBMX (3-i-butyl-1-methylxanthine) in PBS (phosphate buffered saline)) and the assay was initiated by addition of 100 micro-L of a mixture of 30 nM A68930 and test compound diluted in G buffer (antagonism) or test compound diluted in G buffer (agonism). The cells were incubated for 20 minutes at 37° C. and the reaction was stopped by the addition of 100 micro-L S buffer (0.1 M HCl and 0.1 mM CaCl2) and the plates were placed at 4° C. for 1 h. 68 micro-L N buffer (0.15 M NaOH and 60 mM NaOAc) was added and the plates were shaken for 10 minutes. 60 micro-1 of the reaction were transferred to cAMP FlashPlates (DuPont NEN) containing 40 micro-L 60 mM Sodium acetate pH 6.2 and 100 micro-L IC mix (50 mM Sodium acetate pH 6.2, 0.1% sodium azide, 12 mM CaCl2 1% BSA (bovine serum albumin) and 0.15 micro-Ci/mL ^125I-cAMP) were added. Following an 18 h incubation at 4° C. the plates were washed once and counted in a Wallac TriLux counter.

human D2 receptor = molecular target: T1, human D2 receptor (Homo sapiens, UniProt P14416); assay: D2 cAMP assay; assay type: cell-based
T1 construct: expressed in transfected cells; host or cells: CHO cells
T1 sequence (P14416 whole entry): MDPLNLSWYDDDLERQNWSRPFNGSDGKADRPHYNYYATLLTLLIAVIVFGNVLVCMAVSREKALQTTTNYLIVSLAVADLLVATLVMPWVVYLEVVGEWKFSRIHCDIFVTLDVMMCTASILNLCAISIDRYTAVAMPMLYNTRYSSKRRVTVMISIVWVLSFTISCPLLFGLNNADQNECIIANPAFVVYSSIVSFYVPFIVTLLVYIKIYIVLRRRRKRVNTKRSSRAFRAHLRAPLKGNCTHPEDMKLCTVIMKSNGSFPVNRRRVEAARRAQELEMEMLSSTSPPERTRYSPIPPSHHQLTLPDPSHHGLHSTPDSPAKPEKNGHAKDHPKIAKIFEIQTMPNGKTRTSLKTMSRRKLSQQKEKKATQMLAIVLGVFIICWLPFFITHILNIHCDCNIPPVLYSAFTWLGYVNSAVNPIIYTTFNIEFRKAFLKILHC
Procedure: The ability of the compounds to either stimulate or inhibit the D2 receptor mediated inhibition of cAMP formation in CHO cells transfected with the human D2 receptor was measure as follows. Cells were seeded in 96 well plates at a concentration of 8000 cells/well 3 days prior to the experiment. On the day of the experiment the cells were washed once in preheated G buffer (1 mM MgCl2, 0.9 mM CaCl2, 1 mM IBMX in PBS) and the assay was initiated by addition of 100 micro-1 of a mixture of 1 micro-M quinpirole, 10 microM forskolin and test compound in G buffer (antagonism) or 10 micro-M forskolin and test compound in G buffer (agonism). The cells were incubated 20 minutes at 37° C. and the reaction was stopped by the addition of 100 micro-1 S buffer (0.1 M HCl and 0.1 mM CaCl2) and the plates were placed at 4° C. for 1 h. 68 micro-L N buffer (0.15 M NaOH and 60 mM Sodium acetate) were added and the plates were shaken for 10 minutes. 60 micro-L of the reaction were transferred to cAMP FlashPlates (DuPont NEN) containing 40 micro-L 60 mM NaOAc pH 6.2 and 100 micro-L IC mix (50 mM NaOAc pH 6.2, 0.1% Sodium azide, 12 mM CaCl2, 1% BSA and 0.15 micro-Ci/ml ^125I-cAMP) were added. Following an 18 h incubation at 4° C. the plates were washed once and counted in a Wallac TriLux counter.

[2] = cAMP formation in CHO cells stably expressing the human recombinant D1 receptor, read-out: D1 EC 50
[3] = inhibition of forskolin-stimulated cAMP formation in CHO cells transfected with the human D2 receptor, read-out: D2 EC 50

Chain of human recombinant D1 receptor (P21728 whole entry): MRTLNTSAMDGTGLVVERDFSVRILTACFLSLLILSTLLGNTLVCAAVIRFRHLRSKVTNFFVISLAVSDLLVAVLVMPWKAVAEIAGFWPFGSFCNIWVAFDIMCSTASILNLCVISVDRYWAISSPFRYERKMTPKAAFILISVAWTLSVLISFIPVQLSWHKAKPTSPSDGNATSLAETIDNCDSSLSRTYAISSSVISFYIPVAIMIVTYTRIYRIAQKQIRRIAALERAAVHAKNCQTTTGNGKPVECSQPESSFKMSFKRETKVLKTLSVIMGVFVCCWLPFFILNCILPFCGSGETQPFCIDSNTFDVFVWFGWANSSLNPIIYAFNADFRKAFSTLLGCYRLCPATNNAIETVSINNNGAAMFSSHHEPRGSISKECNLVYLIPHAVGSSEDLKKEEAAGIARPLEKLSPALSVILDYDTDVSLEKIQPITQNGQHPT

| SMILES | EC50 [1] [nM] | EC50 (human D2 receptor) [nM] | EC50 [1, 2] [nM] | EC50 (human D2 receptor; [3]) [nM] |
| --- | --- | --- | --- | --- |
| Oc1cccc2c1C[C@@H]1OCCN(CC3CC3)[C@H]1C2 [Example 5d2, (4aS,10aS)-4-cyclo-Propylmethyl-3,4,4a,5,10,10a-hexahydro-2H-naphtho[2,3-b][1,4]oxazin-9-ol hydrochloride] | > 10000 | 1400 |  |  |
| CCCN1C[C@@H](CSC)O[C@@H]2Cc3c(cccc3OC)C[C@H]21 [Example 3c, (2S,4aR,10aR)-9-Methoxy-2-methylsulfanylmethyl-4-n-propyl-3,4,4a,5,10,10a-hexahydro-2H-naphtho[2,3-b][1,4]oxazine] |  |  | > 10000 | 110 |
| CCCN1C[C@H](C)O[C@@H]2Cc3c(O)cccc3C[C@H]21 [Example 5k, (2S,4aR,10aR)-2-Methyl-4-n-propyl-3,4,4a,5,10,10a-hexahydro-2H-naphtho[2,3-b][1,4]oxazin-9-ol trifluoroacetate] | 180 | 2 |  |  |
| CCCN1CCO[C@@H]2Cc3c(ccc4c3OCO4)C[C@H]21 [Example 8c, (6aR,10aR)-7-n-Propyl-6a,7,8,9,10a,11-hexahydro-6H-1,3,10-trioxa-7-aza-cyclo-penta[a]anthracene trifluoroacetate] |  |  | > 10000 | 140 |
| CCCN1C[C@H](Cn2ccnc2)O[C@@H]2Cc3c(cccc3OC)C[C@H]21 [Example 3e, (2R,4aR,10aR)-2-Imidazol-1-ylmethyl-9-methoxy-4-n-propyl-3,4,4a,5,10,10a-hexahydro-2H-naphtho[2,3-b][1,4]oxazine] | 5800 | 30 |  |  |
| CCCN1CCO[C@@H]2Cc3c(ccc(O)c3O)C[C@H]21 [Example 7, (4aR,10aR)-4-n-Propyl-3,4,4a,5,10,10a-hexahydro-2H-naphtho[2,3-b][1,4]oxazine-8,9-diol trifluoroacetate] | 200 | 0.15 |  |  |
